Assay results: ChEMBL document CHEMBL4765306, “Design, synthesis and biological evaluation of novel naturally-inspired multifunctional molecules for the management of Alzheimer's disease” (Eur J Med Chem, 2020)
Active and inactive are the calls of the source. No cut-off for these calls is given here.

Experiments:
Acetylcholinesterase [1] = biological target: T1, Acetylcholinesterase (Homo sapiens, UniProt P22303); experiment: Non-competitive inhibition of recombinant human erythrocyte AChE at 1 to 10 uM using acetylthiocholine iodide as substrate preincubated for 30 mins followed by substrate addition and measured after 30 mins by Lineweaver-burk plot analysis; details: dose 1-10 µM, time 60.0 min
Acetylcholinesterase [2] = biological target: T1, Acetylcholinesterase; experiment: Inhibition of recombinant human erythrocyte AChE using acetylthiocholine iodide as substrate preincubated for 30 mins followed by substrate addition and measured after 30 mins by spectrophotometry based Ellman's method
[3] = biological target: Cholinesterase (Equus caballus) (UniProt P81908); experiment: Inhibition of […] equine serum BuChE at 20 uM using butyryl thiocholine iodide as substrate preincubated for 30 mins followed by substrate addition and measured after 30 mins by spectrophotometry based Ellman's method relative to control; type: cell-free; details: time 60.0 min
Cholinesterase = Cholinesterase (Equus caballus, UniProt P81908); experiment: Inhibition of […] equine serum BuChE using butyryl thiocholine iodide as substrate preincubated for 30 mins followed by substrate addition and measured after 30 mins by spectrophotometry based Ellman's method; type: cell-free
[4] = biological target: Cholinesterase (Equus caballus) (UniProt P81908); experiment: Mixed-type inhibition of […] equine serum BuChE at 7.5 to 30 uM using butyryl thiocholine iodide as substrate preincubated for 30 mins followed by substrate addition and measured after 30 mins by Lineweaver-burk plot analysis; type: cell-free; details: dose 7.5-30 µM, time 60.0 min
[5] = Antioxidant activity assessed as DPPH radical scavenging activity at 20 uM incubated for 25 mins in shaker relative to control; type: functional
[6] = Antioxidant activity assessed as DPPH radical scavenging activity incubated for 25 mins in shaker; type: functional
[7] = Metal chelating activity assessed as Fe3+-compound complex formation at 300 uM measured for 30 mins by UV-Visible spectrophotometric method
[8] = Metal chelating activity assessed as Fe3+-compound complex formation at 300 uM measured for 30 mins by MS-MS analysis
Homo sapiens = species: Homo sapiens; experiment: Disruption of human amyloid beta 1 to 42 assessed as effect on amyloid beta 1 to 42 morphology at 1.58 uM incubated for 10 days by atomic force microscopic analysis; details: time 10.0 day
[9] = Cytotoxicity against human SH-SY5Y cells assessed as reduction in cell viability at 20 uM incubated for 24 hrs by MTT assay; type: cell-based; details: read-out: INH
[10] = Acute toxicity in Swiss albino mouse assessed as organism death at 500 mg/kg, po administered once and observed for 14 days; type: organism-based; details: in vivo, 336 h, time 14 day
[11] = Acute toxicity in Swiss albino mouse assessed as abnormal behaviour at 500 mg/kg, po administered once and observed for 14 days; type: organism-based; details: in vivo, 336 h, time 14 day
[12] = Acute toxicity in Swiss albino mouse assessed as effect on water consumption at 500 mg/kg, po administered once and observed for 14 days; type: organism-based; details: in vivo, 336 h, time 14 day
[13] = Acute toxicity in Swiss albino mouse assessed as effect on food consumption at 500 mg/kg, po administered once and observed for 14 days; type: organism-based; details: in vivo, 336 h, time 14 day
[14] = Acute toxicity in Swiss albino mouse assessed as effect on body weight at 500 mg/kg, po administered once and observed for 14 days; type: organism-based; details: in vivo, 336 h, time 14 day
[15] = Acute toxicity in Swiss albino mouse assessed as liver damage at 500 mg/kg, po administered once and observed after 14 days by microscopic analysis; type: organism-based; details: in vivo, 336 h, time 14 day
Mus musculus [16] = experiment: Memory enhancement effect in scopolamine-induced Swiss albino mouse model of amnesia assessed as increase in spontaneous alteration at 6.25 to 25 mg/kg, po administered for 7 days and observed after 30 mins before scopolamine treatment and measured after 15 mins by Y-maze test; type: functional, organism-based; details: dose 6.25-25 mg/kg, time 7.0 day
Mus musculus [17] = experiment: Memory enhancement effect in scopolamine-induced Swiss albino mouse model of amnesia assessed as effect on total arm entries at 6.25 to 25 mg/kg, po administered for 7 days and observed after 30 mins before scopolamine treatment and measured after 15 mins by Y-maze test; type: functional, organism-based; details: dose 6.25-25 mg/kg, time 7.0 day
Mus musculus [18] = experiment: Ex vivo inhibition of AChE in brain of scopolamine-induced Swiss albino mouse model of amnesia at 6.25 to 25 mg/kg, po administered for 7 days and observed after 30 mins before scopolamine treatment and measured after 15 mins using acetylthiocholine iodide as substrate by Ellman's method; type: functional, organism-based; details: dose 6.25-25 mg/kg, time 7.0 day
Mus musculus [19] = experiment: Ex vivo inhibition of BChE in brain of scopolamine-induced Swiss albino mouse model of amnesia at 6.25 to 25 mg/kg, po administered for 7 days and observed after 30 mins before scopolamine treatment and measured after 15 mins using butyryl thiocholine iodide as substrate by Ellman's method; type: functional, organism-based; details: dose 6.25-25 mg/kg, time 7.0 day
Mus musculus [20] = experiment: Ex vivo antioxidant activity in brain of scopolamine-induced Swiss albino mouse model of amnesia assessed as increase in SOD level at 6.25 to 25 mg/kg, po administered for 7 days and observed after 30 mins before scopolamine treatment and measured after 15 mins; type: functional, organism-based; details: dose 6.25-25 mg/kg, time 7.0 day
Mus musculus [21] = experiment: Ex vivo antioxidant activity in brain of scopolamine-induced Swiss albino mouse model of amnesia assessed as increase in CAT level at 6.25 to 25 mg/kg, po administered for 7 days and observed after 30 mins before scopolamine treatment and measured after 15 mins; type: functional, organism-based; details: dose 6.25-25 mg/kg, time 7.0 day
Mus musculus [22] = experiment: Ex vivo antioxidant activity in brain of scopolamine-induced Swiss albino mouse model of amnesia assessed as decrease in MDA level at 6.25 to 25 mg/kg, po administered for 7 days and observed after 30 mins before scopolamine treatment and measured after 15 mins; type: functional, organism-based; details: dose 6.25-25 mg/kg, time 7.0 day

T1 sequence (P22303 whole entry): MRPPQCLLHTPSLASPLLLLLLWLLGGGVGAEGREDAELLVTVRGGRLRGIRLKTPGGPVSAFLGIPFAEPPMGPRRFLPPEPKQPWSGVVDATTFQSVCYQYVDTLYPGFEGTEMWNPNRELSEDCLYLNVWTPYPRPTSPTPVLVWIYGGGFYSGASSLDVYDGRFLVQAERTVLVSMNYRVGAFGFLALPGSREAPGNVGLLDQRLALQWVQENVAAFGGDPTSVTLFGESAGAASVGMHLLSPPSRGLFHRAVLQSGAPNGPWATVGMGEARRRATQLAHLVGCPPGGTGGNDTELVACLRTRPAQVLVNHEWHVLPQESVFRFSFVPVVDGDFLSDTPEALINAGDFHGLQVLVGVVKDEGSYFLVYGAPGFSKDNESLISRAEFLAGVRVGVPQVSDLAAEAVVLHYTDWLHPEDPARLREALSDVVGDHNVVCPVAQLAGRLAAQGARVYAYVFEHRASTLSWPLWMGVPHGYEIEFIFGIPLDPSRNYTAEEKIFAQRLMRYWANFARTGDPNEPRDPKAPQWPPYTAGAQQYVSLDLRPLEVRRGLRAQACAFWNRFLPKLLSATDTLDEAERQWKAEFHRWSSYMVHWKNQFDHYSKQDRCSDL
Cholinesterase (Equus caballus), sequence (P81908 whole entry): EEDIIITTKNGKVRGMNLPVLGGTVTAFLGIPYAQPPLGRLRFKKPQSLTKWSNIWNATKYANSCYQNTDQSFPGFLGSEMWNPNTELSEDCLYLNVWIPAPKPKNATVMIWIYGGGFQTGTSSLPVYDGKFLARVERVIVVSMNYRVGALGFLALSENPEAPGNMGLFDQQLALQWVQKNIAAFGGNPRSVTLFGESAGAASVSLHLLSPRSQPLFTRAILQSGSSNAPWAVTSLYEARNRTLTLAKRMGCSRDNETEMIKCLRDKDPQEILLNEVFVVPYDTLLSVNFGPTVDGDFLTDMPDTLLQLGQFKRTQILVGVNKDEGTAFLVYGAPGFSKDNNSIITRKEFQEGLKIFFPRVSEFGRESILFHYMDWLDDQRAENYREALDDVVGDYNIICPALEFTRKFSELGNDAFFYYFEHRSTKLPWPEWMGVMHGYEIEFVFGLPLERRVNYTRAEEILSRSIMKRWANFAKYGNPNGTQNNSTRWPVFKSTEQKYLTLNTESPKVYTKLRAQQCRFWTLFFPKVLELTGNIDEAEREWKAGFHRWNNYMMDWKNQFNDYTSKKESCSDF
Cholinesterase, sequence (P81908 whole entry): as above

COc1cc(/C=C/C(=O)NCC(=O)Nc2ccc3[nH]ccc3c2)ccc1O
inhibition (Acetylcholinesterase [1]): Active | IC50 (Acetylcholinesterase [2]): 5.74 µM | inhibition [3]: 58.7% | IC50 (Cholinesterase): 14 µM | inhibition [4]: Active | Activity [5]: 31.3% | IC50 [6]: 57.4 µM | Activity [7]: Active | Activity [8]: Active | Activity (Homo sapiens): Active | cytotoxicity at 24 h, 20 µM [9]: 4.39% | Activity [10]: Non-Toxic | Activity [11]: Non-Toxic | Activity [12]: Non-Toxic | Activity [13]: Non-Toxic | Activity [14]: Non-Toxic | Activity [15]: Non-Toxic | Activity (Mus musculus [16]): Active | Activity (Mus musculus [17]): Active | Activity (Mus musculus [18]): Active | Activity (Mus musculus [19]): Active | Activity (Mus musculus [20]): Active | Activity (Mus musculus [21]): Active | Activity (Mus musculus [22]): Active

COc1cc(/C=C/C(=O)NCC(=O)Nc2ccc(C(F)(F)F)cc2)ccc1O
IC50 (Acetylcholinesterase [2]): 8.23 µM | inhibition [3]: 37.2%

COc1cc(/C=C/C(=O)NCC(=O)Nc2cccc(C)c2)ccc1O
IC50 (Acetylcholinesterase [2]): 18.9 µM | inhibition [3]: 36.1%

COc1cc(/C=C/C(=O)N2CCN(c3ccc(C)cc3)CC2)ccc1O
IC50 (Acetylcholinesterase [2]): 19.5 µM | inhibition [3]: 38.1%

COc1cc(/C=C/C(=O)NCC(=O)Nc2ccccc2)ccc1O
IC50 (Acetylcholinesterase [2]): 21.9 µM | inhibition [3]: 38.2%

COc1cc(/C=C/C(=O)NCC(=O)Nc2ccc(Br)cc2)ccc1O
IC50 (Acetylcholinesterase [2]): 10.2 µM | inhibition [3]: 39.3%

COc1ccc(NC(=O)CNC(=O)/C=C/c2ccc(O)c(OC)c2)cc1
IC50 (Acetylcholinesterase [2]): 17.3 µM | inhibition [3]: 49.9% | IC50 (Cholinesterase): 19.5 µM | Activity [5]: 23.6% | IC50 [6]: 91.2 µM

COc1cccc(N2CCN(C(=O)/C=C/c3ccc(O)c(OC)c3)CC2)c1
IC50 (Acetylcholinesterase [2]): 9.91 µM | inhibition [3]: 26.9% | Activity [5]: 28.8% | IC50 [6]: 62 µM

COc1cc(/C=C/C(=O)NCC(=O)Nc2ccccc2Cl)ccc1O
IC50 (Acetylcholinesterase [2]): 5.72 µM | inhibition [3]: 47.4%

COc1cc(/C=C/C(=O)NCC(=O)Nc2ccccc2C(F)(F)F)ccc1O
IC50 (Acetylcholinesterase [2]): 15.1 µM | inhibition [3]: 43.2%

COc1cc(/C=C/C(=O)NCC(=O)Nc2cccc(C#N)c2)ccc1O
IC50 (Acetylcholinesterase [2]): 16 µM | inhibition [3]: 31.6%

COc1cc(/C=C/C(=O)N2CCN(c3ccc(F)cc3)CC2)ccc1O
IC50 (Acetylcholinesterase [2]): 11 µM | inhibition [3]: 27.7%

COc1cc(/C=C/C(=O)NCC(=O)Nc2ccc(C#N)cc2)ccc1O
IC50 (Acetylcholinesterase [2]): 17.4 µM | inhibition [3]: 35.7%

COc1cc(/C=C/C(=O)N2CCN(c3cccc([N+](=O)[O-])c3)CC2)ccc1O
IC50 (Acetylcholinesterase [2]): 23.4 µM | inhibition [3]: 37.9%

COc1cc(/C=C/C(=O)NCC(=O)Nc2ccccc2C)ccc1O
IC50 (Acetylcholinesterase [2]): 16.3 µM | inhibition [3]: 36.8%
